Source: the Kinase Knowledgebase extract (Sharma et al. 2016)

Target: CDK2 (human) (UniProt P24941)
Experiment: Enzyme Assay

Row | Ki [µM] | Compound
1 | < 1 | O=c1[nH][nH]c2ccc(-c3cc(Nc4n[nH]c5c(F)cc(F)cc45)c4ccccc4n3)c(C(F)(F)F)c12
2 | < 1 | O=c1[nH][nH]c2cc(OCCCNc3ccccn3)ccc12
3 | < 1 | Cc1cnc(NCCC(Cc2ccccc2)Oc2ccc3c(=O)[nH][nH]c3c2)s1 (centres undefined)
4 | < 1 | O=c1[nH][nH]c2cc(Nc3ccc([N+](=O)[O-])c(Nc4ncn[nH]4)n3)ccc12
5 | < 1 | O=c1[nH][nH]c2cc(SCCC(Nc3cc(C4CC4)[nH]n3)c3ccccc3)ccc12 (centres undefined)
6 | < 1 | Cc1cnc(NC2CCCC(SCc3ccc4c(=O)[nH][nH]c4c3)C2)s1 (centres undefined)
7 | < 1 | O=c1[nH][nH]c2cc(Nc3cc(Nc4n[nH]c5ccccc45)ccn3)ccc12
8 | < 1 | O=C(CC(=O)Nc1nccnn1)Nc1ccc2c(=O)[nH][nH]c2c1
9 | < 1 | CC(=O)Nc1cccc(-c2cc(Nc3cc(C)[nH]n3)nc(Sc3ccc4c(=O)[nH][nH]c4c3)n2)c1
10 | < 1 | Cc1ccc2nc(Nc3ccc4c(=O)[nH][nH]c4c3)nc(Nc3cc(C)[nH]n3)c2n1
11 | < 1 | O=c1[nH][nH]c2cc(NCCC(Nc3ccccn3)c3ccccc3)ccc12 (centres undefined)
12 | < 1 | Cc1cc(Nc2cc(-c3c(C)cccc3C)nc(Oc3ccc4c(=O)[nH][nH]c4c3)n2)n[nH]1
13 | < 1 | Cc1cc(Nc2nc(Nc3ccc4c(=O)[nH][nH]c4c3)nc3ccc(-c4ccccc4Cl)cc23)n[nH]1
14 | < 1 | O=c1[nH][nH]c2cc(CCC3COCC(Nc4ccccn4)C3)ccc12 (centres undefined)
15 | < 1 | CC(=O)Nc1cccc(-c2cc(Nc3cc(C)[nH]n3)nc(Oc3ccc4c(=O)[nH][nH]c4c3)n2)c1
16 | < 1 | Cc1cc(Nc2cccc(Oc3ccc4c(=O)[nH][nH]c4c3)n2)n[nH]1
17 | < 1 | O=c1[nH][nH]c2cc(NCCCNc3cc(C4CC4)[nH]n3)ccc12
18 | < 1 | O=c1[nH][nH]c2cc(NC3COCC(Nc4cc(C5CC5)[nH]n4)C3)ccc12 (centres undefined)
19 | < 1 | O=c1[nH][nH]c2cc(Nc3nc(Nc4cc(C5CC5)[nH]n4)c4cc(-c5ccccc5)ccc4n3)ccc12
20 | < 1 | O=c1[nH][nH]c2cc(Nc3cccc(Nc4cc(C5CC5)[nH]n4)c3)ccc12
21 | < 1 | O=C(CCNc1nccnn1)Cc1ccc2c(=O)[nH][nH]c2c1
22 | < 1 | Cc1cc(Nc2nc(-c3c(C)cc4[nH][nH]c(=O)c4c3C)nc3ccccc23)n[nH]1
23 | < 1 | Cn1cnc(NC2CCC(Oc3ccc4c(=O)[nH][nH]c4c3)C2)c1 (centres undefined)

Continued, compound first:

Row | Compound | Ki [µM]
24 | O=c1[nH][nH]c2cc(CCC3CCCC3Nc3ccccn3)ccc12 (centres undefined) | < 1
25 | O=c1[nH][nH]c2cc(Nc3nc(Nc4cc(C5CC5)[nH]n4)c4cc(N5CCCCC5)ccc4n3)ccc12 | < 1
26 | Cc1cnc(NC(CCCc2ccc3c(=O)[nH][nH]c3c2)c2ccccc2)s1 (centres undefined) | < 1
27 | O=c1[nH][nH]c2cc(NC3CCCC(Nc4ccccn4)C3)ccc12 (centres undefined) | < 1
28 | Cc1cnc(NC2CCC(Cc3ccc4c(=O)[nH][nH]c4c3)C2)s1 (centres undefined) | < 1
29 | O=c1[nH][nH]c2cc(Cl)c(-c3cc4c(c(Nc5n[nH]c6ccccc56)n3)CCCC4)cc12 | < 1
30 | COCCNc1cc(Nc2cc(C)[nH]n2)nc(OCc2ccc3c(=O)[nH][nH]c3c2)n1 | < 1
31 | CC(C)(C)c1cc(Nc2cc(-c3cccc([N+](=O)[O-])c3)nc(Nc3ccc4c(=O)[nH][nH]c4c3)n2)n[nH]1 | < 1
32 | O=c1[nH][nH]c2cc(Sc3cccc(Nc4cc(C5CC5)[nH]n4)n3)ccc12 | < 1
33 | CCc1cc(Nc2cc(C)[nH]n2)nc(C(C)(C)c2ccc3c(=O)[nH][nH]c3c2)n1 | < 1
34 | O=c1[nH][nH]c2cc(SC3COCC(Nc4cc(C5CC5)[nH]n4)C3)ccc12 (centres undefined) | < 1
35 | O=c1[nH][nH]c2cc(Nc3cc(Nc4cc(C5CC5)[nH]n4)ncn3)ccc12 | < 1
36 | O=c1[nH][nH]c2cc(C(F)(F)F)c(-c3cc(Nc4n[nH]c5ccccc45)cc(C4CCCCC4)n3)cc12 | < 1
37 | Cc1cc(Nc2cc(-c3ccccc3)[nH]n2)nc(COc2ccc3c(=O)[nH][nH]c3c2)n1 | < 1
38 | O=c1[nH][nH]c2cc(COC3CCCC3Nc3cc(C4CC4)[nH]n3)ccc12 (centres undefined) | < 1
39 | COc1cc(-c2cc(Nc3cc(C)[nH]n3)nc(Nc3ccc4c(=O)[nH][nH]c4c3)n2)cc(OC)c1OC | < 1
40 | O=c1[nH][nH]c2cc(Nc3cc4ccccc4c(Nc4cc(C5CC5)[nH]n4)n3)ccc12 | < 1
41 | O=c1[nH][nH]c2cc(NC(CCNc3ccccn3)Cc3ccccc3)ccc12 (centres undefined) | < 1
42 | O=c1[nH][nH]c2cc(OCC3CCCC(Nc4nccnn4)C3)ccc12 (centres undefined) | < 1
43 | O=c1[nH][nH]c2cc(CCCONc3nccnn3)ccc12 | < 1
44 | O=c1[nH][nH]c2cc(NCC3CCCC3Nc3nccnn3)ccc12 (centres undefined) | < 1
